# In patent US10363261B2, “Enolase inhibitors and methods of treatment therewith” (Board of Regents, The University of Texas System, priority 2015, dated 2019):
# “Also recorded” adds a separate entry of the source. Where two headings read alike, the source gives them in different places.
# What was measured:
# enolase (ENO1 and ENO2) = experiment: Enolase inhibitory activity in vitro, isoform not distinguished (ENO1 and ENO2); type: biochemical, human
# Description: (§4) Human ENO1 and ENO2 were overexpressed in the human D423 cell line and used for enzymatic assays. Inhibitors (PhAH, SF2312 and Deoxy-SF2312, Hex, Hepta, Pom-Hex, and Fosmidomycin) were incubated with the enzyme prior to addition of 5 mM 2-PG substrate. Enzymatic activity was measured by monitoring fluorescence of NADH at 340 nm Exitation/460 nm emission using an Lactate dehydrogenase/Pyruvate kinase linked assay which links the formation of PEP to the oxidation of NADH to NAD+, as we have described in published work (Muller et al., 2012). Enzymatic activity was normalized to that in the absence of the inhibitor (set to 1) and plotted as function of inhibitor concentration.
# (§5) Enolase activity was measured using two different methods, either by a fluorometric NADH-linked assay or a direct spectrophotometric assay via formation of PEP. In the fluorescent assay, enolase activity was measured via NADH oxidation in a pyruvate kinase-lactate dehydrogenase coupled assay as previously described (Muller, et al., 2012). The assay is conducted in 10 mM KCl, 5 mM MgSO4, 100 mM triethanolamine at pH 7.4, with 400 μM NADH and 2 mM ADP. 2-Phosphoglycerate (2-PGA), pyruvate kinase (PK) and lactate dehydrogenase (LDH) are provided in excess, with conversion of 2-PGA to PEP by enolase being rate limiting. PEP (with ADP) is substrate of PK; pyruvate formed by this reaction is linked to NADH oxidation by LDH. Enolase activity is determined by measuring oxidation of NADH fluorescently by excitation at 340 nm and emission at 460 nm. The substrate concentration, if not otherwise indicated, was 5 mM 2-PGA. Fluorescence was measured using Omega Fluorescence Plate Reader (BMG Labtech). Alternatively, Enolase activity was measured directly by the appearance of PEP from 2-PGA via absorption at 240 nm (Marangos, et al., 1978). The assay medium was the same, except that all the auxiliary reagents (PK/LDH, NADH, ADP) are omitted. Both assays were conducted in a 96-well plated format with the direct assay performed in UV-transmissible plates.
# [1] = test system: ENO1 null glioma cells (D423-MG); experiment: Growth inhibition by live imaging (Incucyte) / crystal violet; type: cell-based, human; conditions: for IC50: Homo sapiens, D-423MG, 72 h, confluence over 3 days, read-out: approximate IC50 for growth inhibition of ENO1 null glioma cells
# Description: (§1) Cell proliferation of glioma cell lines was assayed either through crystal violet staining or by live-cell confluence measurements with the IncuCyte (Essen BioScience). Growth curves using the IncuCyte were generated by confluence imaging every 4 hours with duplicate replicates with an initial seeding of 1500 cells/well in 96-well plates. At the indicated time point, cells were fixed with 10% formalin and stained with crystal violet. Dye extraction was performed using 10% acetic acid solution, and absorbance was read at 595 nm. Apoptotic cells were counted by staining with YO-PRO®-1 Iodide (491/509, Life Technologies, Y3603). Apoptotic cells become permeable to YO-PRO®-1 while live cells are not stained. Alternatively, Propidium Iodide was employed (Life Technologies) instead of YO-PRO. Total cell number was quantified by Hoechst 33342 (Cat# H3570 Invitrogen). Cells were seeded as 2×10^3 cells/well in 96-well plates and treated in the presence or absence of doxycycline. On the day of apoptosis survey, old media was removed and each well was filled to 100 μl with fresh media. Hoechst and YO-PRO®-1 were mixed in 1:100 PBS and 10 μl of the mixture was added in each well gently without touching the cells for a final dilution of 1:1000 from stock. Plates were then incubated at 37° C. for 2 hours. Image capture and quantification was done by High Content Screening System—Operetta (Perkin Elmer). ATP content was measured with the luciferase/luciferin CellTiter-Glo® assay. Briefly, 100 μl of CellTiter-Glo® assay media was added to 96-well plates containing 100 μl of media and cells. Lysis was achieved by the […] in the buffer and vigorous pipetting, and luminescence was determined using an Omega Luminescence Plate Reader (BMG Labtech). Results were expressed relative to vehicle treated control.
# (§2) The inhibitor effects were followed live-cell confluence measurements with the IncuCyte (Essen BioScience) as we described previously (Muller et al., 2012). Growth curves using the IncuCyte were generated by confluence imaging every 2 hours with quadruplicate replicates with and initial seeding of 10^3 cells/well in 96-well plates.
# (§3) At the indicated time point (usually 2 weeks), cells were fixed with 10% formalin and stained with 0.1% crystal violet solution for 1 h as described previously (Muller et al., 2012). Dye extraction was performed using 10% acetic acid solution, and absorbance was read at 595 nm.
# normal human astrocytes = experiment: Sensitivity under conventional growth conditions, normal cells; type: cell-based
# Description: as §2, §3
# [2] = test system: cell lines heterozygously deleted for ENO1; experiment: Sensitivity under conventional growth conditions, ENO1 heterozygous lines; type: cell-based, human
# Description: as §2, §3
# [3] = test system: ENO1 deleted glioma cells in neurospheres; experiment: Cell viability in 3 dimensional neurosphere conditions (tetramethylrhodamine); type: cell-based, human
# Description: The cellular viability studies of 3-dimensional tumospheres was performed by using the vital dye, tetramethylrhomdamine ethyl ester (TMRE). […] For reference, a brightfield picture was also taken.
# To more accurately model tumors, glioma cells were grown in 3 dimensional neurosphere conditions. The surface to volume ratio of the neurosphere was considerably smaller than in convention cell culture conditions and as such, compounds with poor cell penetration such as phosphonates have considerably lower efficacy than in conventional cell culture. […] However, under the same conditions, the cell permeable pro-drug, Pom-Hex, was highly toxic to ENO1 deleted glioma cells (FIG. 10B). Cell viability in spheres was monitored using 100 nM of tetramethylrhodamine, which is actively taken up by live but not dead cells.
# [4] = test system: VHL deleted kidney cancer cell lines RCC4 and 786-O; experiment: Live growth imaging (Incucyte) of VHL deleted vs VHL rescued kidney cancer cells; type: cell-based, human
# Description: as §2
# VHL is a common event in renal clear cell carcinoma. Deletion of VHL activates the HIF pathway, suppressing respiration and rendering cancer cells highly dependent on glycolysis. As such, efforts have been made to target glycolysis to achieve selective toxicity to VHL deficient kidney cancer. As such, the enolase inhibitor Pom-Hex was tested in VHL deteted kidney cancer cell lines. In two independent VHL deleted kidney cancer cell lines, RCC4 (bottom) and 786-O (top panel), the enolase inhibitor, Pom-Hex, was 4-8 times more toxic to the VHL deleted (upper), compared to isogenic rescued controls, expressing VHL from an ectopic locus (lower panels, italics). As in FIG. 12, growth in response to increasing doses of Pom-Hex was measured by live growth imaging using the Incucyte.
# [5] = test system: D423-MG glioma cells (1p36 deletion spanning ENO1); experiment: Intracranial D423-MG glioma tumors tracked by T2 MRI; type: in vivo, Nude mice; conditions: 10 mg/kg intravenous for 11 days
# Description: Nude mice were injected with D423-MG glioma cells which carry the 1p36 deletion spanning ENO1. Tumors formed around 30 days post injection and growth was tracked non-invasively by T2 MRI. In the absence of treatment, tumors grew continuously, ultimately killing the animal. The tumor area (right side of the brain) is distinguished from the normal mouse brain by high contrast. MRI measurements were performed in a 4.7 T Biospec USR47/40 (Bruker Biospin MRI, Billerica, Mass.) at the M. D. Anderson small animal imaging facility (SAIF). Briefly, animals were maintained under deep anesthesia with isoflurane with body temperature maintained by a heating blanket. Anesthetized mice were restrained with the head held in a stereotactic holder. Breathing was monitored and synchronized with the instrument. Routine tumor detection was done by T2-weighed imaging. First, a low resolution axial scan is taken to center the field properly, after which a series of high resolution axial and coronal scans are recorded.
# Nude mice were injected with D423-MG glioma cells which carry the 1p36 deletion spanning ENO1. Tumors formed around 30 days post injection and growth was tracked non-invasively by T2 MRI. In the absence of treatment, tumors grew continuously, ultimately killing the animal. The tumor area (right side of the brain) was distinguished from the normal mouse brain by high contrast. […]
# [6] = test system: ENO1 deleted Glioblastoma cell line, Gli56; experiment: Intracranial Gli56 glioblastoma tumors tracked by T2 MRI; type: in vivo, NUDE immunocompromised mice; conditions: Pom-SF2312 at 4 MPK
# From the text: Animals (NUDE immunocompromised mice) injected intracranially with the ENO1 deleted Glioblastoma cell line, Gli56. After 30 days, tumors became readily visible by MRI (T2, the white hyperintense regions are tumor on the background grey of the normal brain). In the absence of treatment, Gli56 tumors grow continuously (Mouse #1, and Mouse #3, from Day 30 to Day 40). […] The tumors have not recurred after discontinuation of treatment.
# [7] = Hematocrit / hemolytic anemia after IV administration; conditions: for hematocrit after treatment (drop from 45%): 100 mg/kg IV for longer than a week; for dose at which mild hemolytic anemia can be observed: as low as
# From the text: Erythrocytes are sensitive to disruptions in the glycolytic cycle as glycolysis is the cell's only source of energy in the form of ATP.
# [8] = Stability in cell culture media by proton-decoupled 31P NMR
# Description: (§6) The stability of Pom-SF2312 in cell culture media (DMEM with 10% fetal bovine serum) was measured by proton-decoupled ^31P NMR on a Brucker 500 MHZ at the M. D. Anderson NMR core (FIG. 14).
# (§7) 1.5 mM Pom-Hex and 1.5 mM Pom-SF2312 were dissolved in standard cell culture media (DMEM media containing 10% FBS with the addition of 10% D2O for locking of the NMR signal). Proton-decoupled ^31P NMR scans were taken at repeated intervals. The experiment was performed at room temperature.
# [9] = test system: ATP levels in D423 ENO1-deleted glioma cells; experiment: ATP content (CellTiter-Glo); type: cell-based, human; conditions: 8 hours of treatment
# Description: as §1
# [10] = test system: conversion of 13C-glucose to 13C-lactate in D423 ENO1-deleted glioma cells; experiment: 13C-NMR tracing of uniformly labeled 13C-glucose to 13C-lactate; conditions: 48 hours, 10 mM 13C-uniformly labeled glucose
# Description: Glucose labeled with heavy, non-radioactive, ^13C at carbon C-1 and ^13C at all carbon atoms were purchased from Cambridge Isotopes (CLM-420-1 and CLM-1396, respectively). Glucose free DMEM media was supplemented with 10 mM ^13C-1 or ^13C-all labeled Glucose. NMR metabolic tracing was performed by substituting conventional DMEM medium with glucose free DMEM medium, to which ^13C-1 glucose (Cambridge Isotopes) was supplemented at 10 mM. […] After 4 days, conditioned media was extracted with 80% methanol at −80° C., lyophilized and resuspended in D2O. Proton-decoupled ^13C NMR spectra were acquired using a 500 MHZ Bruker instrument in the M. D. Anderson NMR core facility.
# ENO2 = ENO2 (Homo sapiens, UniProt P09104); experiment: Enolase enzymatic activity and Michaelis-Menten kinetic analysis, ENO2; conditions: for inhibition kinetics with respect to substrate 2-PGA: SF2312: at IC50
# Description: Human ENO1 and ENO2 were overexpressed in the human D423 cell line and used for enzymatic assays. […] Enzymatic activity was measured by monitoring fluorescence of NADH at 340 nm Exitation/460 nm emission using an Lactate dehydrogenase/Pyruvate kinase linked assay which links the formation of PEP to the oxidation of NADH to NAD+, as we have described in published work (Muller et al., 2012). Enzymatic activity was normalized to that in the absence of the inhibitor (set to 1) and plotted as function of inhibitor concentration.
# The Michaelis-Menten Kinetic analysis was performed using standard methods in the field such as those taught by Voet and Voet, 2011. The enzymatic activity of Enolase 1 or 2 v was determine over a concentration range of 10 mM to 0.5 mM 2-PG [S], in the presence of increasing concentrations of inhibitor [I].
# Native lysates of mouse tissues and human cell lines were prepared using 20 mM Tris HCl, 1 mM EDTA, and 1 mM β-mercaptoethanol at pH 7.4 and homogenized using a Polytron homogenizer three times for a period of 10 s followed by sonication, after which the lysates were cleared by centrifugation at 20,000 g for 10 minutes. Enolase activity was measured using two different methods, either by a fluorometric NADH-linked assay or a direct spectrophotometric assay via formation of PEP. In the fluorescent assay, enolase activity was measured via NADH oxidation in a pyruvate kinase-lactate dehydrogenase coupled assay as previously described (Muller, et al., 2012). The assay is conducted in 10 mM KCl, 5 mM MgSO4, 100 mM triethanolamine at pH 7.4, with 400 μM NADH and 2 mM ADP. 2-Phosphoglycerate (2-PGA), pyruvate kinase (PK) and lactate dehydrogenase (LDH) are provided in excess, with conversion of 2-PGA to PEP by enolase being rate limiting. PEP (with ADP) is substrate of PK; pyruvate formed by this reaction is linked to NADH oxidation by LDH. Enolase activity is determined by measuring oxidation of NADH fluorescently by excitation at 340 nm and emission at 460 nm. The substrate concentration, if not otherwise indicated, was 5 mM 2-PGA. Fluorescence was measured using Omega Fluorescence Plate Reader (BMG Labtech). Alternatively, Enolase activity was measured directly by the appearance of PEP from 2-PGA via absorption at 240 nm (Marangos, et al., 1978). The assay medium was the same, except that all the auxiliary reagents (PK/LDH, NADH, ADP) are omitted. Both assays were conducted in a 96-well plated format with the direct assay performed in UV-transmissible plates.
# human ENO1 = human ENO1 (Homo sapiens, UniProt P06733); experiment: Enolase enzymatic activity, NADH-linked pyruvate kinase/lactate dehydrogenase fluorescence assay, ENO1
# Description: as §4, §5
# Maximum tolerated dose = experiment: Maximum tolerated dose; parameters: species or system NUDE immunocompromised mice; conditions: mouse, in vivo
# [11] = up to 10 mM, lysates of D423 ENO1 and ENO2 expressing cells
# Description for physchem: as §6, §7
# Chain of ENO2 (P09104 whole entry): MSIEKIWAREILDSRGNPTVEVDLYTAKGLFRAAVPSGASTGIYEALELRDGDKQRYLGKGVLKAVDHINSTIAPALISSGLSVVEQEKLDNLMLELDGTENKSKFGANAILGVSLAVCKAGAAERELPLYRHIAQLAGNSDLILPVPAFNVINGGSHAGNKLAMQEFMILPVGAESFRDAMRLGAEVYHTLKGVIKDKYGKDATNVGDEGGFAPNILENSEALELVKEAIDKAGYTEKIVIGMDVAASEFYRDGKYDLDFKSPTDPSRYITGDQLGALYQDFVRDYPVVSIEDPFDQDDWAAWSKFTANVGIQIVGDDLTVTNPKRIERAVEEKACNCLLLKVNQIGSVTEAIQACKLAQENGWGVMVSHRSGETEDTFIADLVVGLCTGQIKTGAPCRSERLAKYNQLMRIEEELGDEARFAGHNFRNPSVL
# Chain of human ENO1 (P06733 whole entry): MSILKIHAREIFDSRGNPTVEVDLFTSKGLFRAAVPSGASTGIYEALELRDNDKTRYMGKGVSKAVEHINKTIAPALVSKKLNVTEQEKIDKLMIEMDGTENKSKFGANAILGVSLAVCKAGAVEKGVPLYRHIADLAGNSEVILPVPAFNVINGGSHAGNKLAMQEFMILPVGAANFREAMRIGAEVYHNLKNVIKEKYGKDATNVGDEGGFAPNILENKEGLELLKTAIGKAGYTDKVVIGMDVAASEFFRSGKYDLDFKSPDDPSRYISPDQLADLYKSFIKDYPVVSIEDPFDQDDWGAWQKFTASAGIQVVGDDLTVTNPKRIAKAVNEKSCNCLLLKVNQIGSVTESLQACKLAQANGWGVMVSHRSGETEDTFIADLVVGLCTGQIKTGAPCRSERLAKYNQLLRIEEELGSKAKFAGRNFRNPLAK
structure (smiles),measurement,setting,value
CC(C)(C)C(=O)OCOP(=O)(OCOC(=O)C(C)(C)C)C1CCCN(O)C1=O (stereo not shown) [Pom-Hex],IC50,"enolase (ENO1 and ENO2); against ENO1 and ENO2, incubated prior to 5 mM 2-PG, contaminant Hex not ruled out",~100000 nM
same,IC50,[1],~35 nM
same,sensitivity of ENO1 deleted D423 glioma cells,[1]; conventional growth conditions,sensitive to even low nM levels of the inhibitor
same,sensitivity of normal human astrocytes,normal human astrocytes,highly resistant
same,sensitivity of cell lines heterozygously deleted for ENO1,[2],intermediate sensitivity
same,toxicity to ENO1 deleted glioma cells in neurosphere conditions,[3],highly toxic
same,fold more potent than Hex,"[3]; FIGS. 10A & 10B, ENO1-deleted glioma cells",≥ 200 fold
same,times more toxic to VHL deleted compared to isogenic rescued controls,[4],4-8 times
same,effect on D423-MG intracranial tumor,[5],completely eradicated the tumor
same,effect on Gli56 intracranial tumor growth,[6],profound tumor regression
same,effect on hematocrit,[7]; doses as high as 10 mg/kg IV for up to 1 month,do not cause a statistically significant drop in hematocrit
same,half-life at 1.5 mM,physchem,36 h
same,"further hydrolysis to the free phosphonate (SF2312, Hex)",[8]; 72 hours of incubation,did not proceed further
same,time for half of the compound to hydrolyze in media,[8]; DMEM with 10% fetal bovine serum,more than 24 hours
CC(C)(C)C(=O)OCOP(=O)(O)C1CC(O)N(O)C1=O (stereo not shown) [Hemi-Pom-SF2312],hydrolysis to SF2312 in media,[8]; within 24 hours,did not appreciably hydrolyze
O=C(O)P(=O)(O)O [Foscarnet],enolase inhibitory activity,enolase (ENO1 and ENO2); [11],no enolase inhibitory activity
same,enolase inhibitory activity,"enolase (ENO1 and ENO2); up to 10 mM, lysates of D423 ENO1 and ENO2 expressing cells, listed as foscanet",no inhibitory activity was observed
"O=C(CP(=O)(O)O)NO [PhAH, phosphonoacetohydroxamate]",concentration reducing ATP levels by >40%,[9],> 100 µM
same,hematocrit after treatment (drop from 45%),[7],29%
same,dose at which mild hemolytic anemia can be observed,[7],50 mg/kg
same,concentration sufficient to decrease the ratio of 13C Lactate/13C glucose by 70%,[10],50 µM
same,IC50,ENO2,~20 nM
same,IC50,human ENO1,~20 nM
"CC(=O)OC1CC(P(=O)(OCOC(=O)C(C)(C)C)OCOC(=O)C(C)(C)C)C(=O)N1OC(C)=O (stereo not shown) [Diacetyl-POM-SF2312, (((1,5-diacetoxy-2-oxopyrrolidin-3-yl)phosphoryl)bis(oxy))bis(methylene) bis(2,2-dimethylpropanoate)]",IC50,[1],~150 nM
"CC(C)(C)C(=O)OCOP(=O)(OCOC(=O)C(C)(C)C)C1CC(O)N(O)C1=O (stereo not shown) [Pom-SF2312, (((1,5-dihydroxy-2-oxopyrrolidin-3-yl)phosphoryl)bis(oxy))bis(methylene)bis(2,2-dimethylpropanoate)]",IC50,[1],< 75 nM
same,maximum tolerated dose,Maximum tolerated dose,4 MPK (mg/kg)
same,half-life at 1.5 mM,physchem; cell culture media,8 h
C[C@@H]1O[C@@H]1P(=O)(O)O [Fosfomycin],enolase inhibitory activity,enolase (ENO1 and ENO2); [11],no enolase inhibitory activity
same,enolase inhibitory activity,"enolase (ENO1 and ENO2); up to 10 mM, lysates of D423 ENO1 and ENO2 expressing cells, listed as fosfomycin",no inhibitory activity was observed
O=C1C(P(=O)(O)O)CCCN1O (stereo not shown) [Hex],toxicity to ENO1 deleted glioma cells in neurosphere conditions,[3],only mildly sensitive
same,hematocrit after treatment (drop from 45%),[7],29%
same,dose at which mild hemolytic anemia can be observed,[7],50 mg/kg
same,potency against ENO2 versus ENO1 (IC50 lower / activity greater for ENO2),ENO2; ENO2 over ENO1,approximately 6 fold
same,Ki for ENO2 compared with ENO1,ENO2; Lineweaver-Burke / Dixon plots,considerably lower Ki for ENO2 than ENO1
same,inhibition kinetics with respect to substrate 2-PGA,ENO2,competitive inhibitor
O=C1C(P(=O)(O)O)CCN1O (stereo not shown) [Deoxy-SF2312],IC50,ENO2,~2000 nM
same,inhibition kinetics with respect to substrate 2-PGA,ENO2,clear competitive kinetics
same,IC50,human ENO1,~2000 nM
O=CN(O)CCCP(=O)(O)O [Fosmidomycin],enolase inhibitory activity,"enolase (ENO1 and ENO2); even concentrations of >10,000,000 nM",completely inactive
same,enolase inhibitory activity,enolase (ENO1 and ENO2); [11],no enolase inhibitory activity; also recorded: no inhibitory activity was observed
